This note sets out measurements from patent US5281738A, “bis[4-(2,6-di-alkyl)phenol]silane derivatives as antiatherosclerotic agents” (Merrell Dow Pharmaceuticals Inc., priority 1992, dated 1994).

In this assay the test system is human LDL (LDL lipid peroxidation). Description: Inhibition of LDL lipid peroxidation (cupric sulfate-induced, thiobarbituric acid assay). The format is biochemical. As to conditions: 250 μg human LDL, compound preincubated 30 min at 42 °C, cupric sulfate 12.5 μM final, 37 °C, 2.5 hours, read-out: ID50 (concentration of test compound required to inhibit 50% of LDL lipid peroxidation). How it is done: The degree of inhibition of LDL lipid peroxidation was determined by the method of Yagi et al. [Vitamins 39, 105 (1968)].
A 0.5 mL solution containing 250 micrograms (μg) of human LDL was incubated with the test compound, in amounts varying from 0 to 30 μg, for 30 minutes at 42° C. To this mixture was added 1 mL of a cupric sulfate solution (final concentration 12.5 μM) and the mixture was incubated at 37° C. for 2.5 hours. The amount of peroxidation of LDL lipid was determined by the thiobarbituric acid assay. The concentration of test compound required to inhibit 50% of LDL lipid peroxidation (ID50) was determined.

As to `CC(C)(C)c1cc(SC[Si](C)(C)CSc2cc(C(C)(C)C)c(O)c(C(C)(C)C)c2)cc(C(C)(C)C)c1O` [Compound A, 4,4'-[(Dimethylsilylene)bis(methylenethio)]-bis[2,6-di-t-butyl]phenol], the IC50 came to 9.5 µM.
